Reference: patent publication US12465613B2, “Pharmaceutical composition for use in the prophylactic and/or therapeutic treatment of L-DOPA-induced dyskinesia” (UNIVERSIDADE DE SANTIAGO DE COMPOSTELA, priority 2019, dated 2025)
“Also recorded” adds a separate entry of the source.

What was measured:
Assay type in all cases: in vivo, rats of the Sprague-Dawley strain
ROCK = ROCK expression and activity in striatum and substantia nigra of dyskinetic animals (Western blot, real-time PCR; Example 1)
RhoA = RhoA expression in striatum and substantia nigra of dyskinetic animals (Western blot, real-time PCR; Example 1)
[1] = test system: rats with unilateral lesion with 6-OHDA, established dyskinesias induced by L-DOPA; assay: AIMs in animals with already established dyskinesias (L-DOPA 3 weeks, then L-DOPA and fasudil; Example 4)
[2] = test system: rats with unilateral lesion with 6-OHDA; assay: Rotational behavior induced by L-DOPA (Example 3); settings: different doses of fasudil (10, 30, 40 mg/kg)
[3] = test system: rats injected with 6-OHDA, dyskinesias induced by L-DOPA; assay: Abnormal involuntary movements (AIMs) when fasudil is co-administered from before and during chronic L-DOPA treatment (Example 2)
[4] = L-DOPA 6 mg/kg and 12 mg/kg, normalized to 6-OHDA animals treated with saline, p<0.05
[5] = daily L-DOPA 6 or 12 mg/kg, 3-4 weeks, increase greater with the higher dose
[6] = fasudil 10 mg/kg/day i.p., L-DOPA 6 mg/kg, 3 weeks, relative to L-DOPA only
[7] = fasudil 30 mg/kg i.p., chronic L-DOPA

## N[C@@H](Cc1ccc(O)c(O)c1)C(=O)O [L-DOPA]
ROCK; L-DOPA 6 mg/kg and 12 mg/kg, normalized to 6-OHDA animals treated with saline
  ROCK activity in the substantia nigra: significant increase
ROCK; [4]
  ROCK protein expression in the substantia nigra: significant increase
ROCK; L-DOPA 6 and 12 mg/kg
  ROCK protein expression in the striatum: only significant with the high dose
ROCK; [5]
  levels of the ROCK protein in dyskinetic animals: significant increase
RhoA; [4]
  RhoA protein expression in the substantia nigra: significant increase
RhoA; L-DOPA 6 and 12 mg/kg
  RhoA protein expression in the striatum: only significant with the high dose
RhoA; [5]
  levels of the RhoA protein in dyskinetic animals: significant increase

## O=S(=O)(c1cccc2cnccc12)N1CCCNCC1 [fasudil]
[1]; FIG. 4B, fasudil 30 and 40 mg/kg, even with L-DOPA 24 mg/kg, p<0.05
  effect on established dyskinetic movements: significant reduction
[1]; L-DOPA increased to 24 mg/kg, maintained up to the end of the treatment
  reduction in established dyskinesias, severe dyskinesia: approximately 50%
[1]; fasudil 10 mg/kg/day, up to 7 days of treatment, after 3 weeks of L-DOPA
  effect on established dyskinetic movements: did not have any effect; also recorded: no improvement
[1]; fasudil 40 mg/kg/day
  day of treatment from which the reduction in established dyskinesias was seen: third
[1]; fasudil 40 mg/kg/day, after 3 weeks of L-DOPA
  reduction in established dyskinesias: about 45%
[1]; fasudil 40 mg/kg, animals treated with L-DOPA for 3-4 weeks, summary statement
  dyskinesias reduced to (already dyskinetic animals): ~50%
[2]
  rotations induced by L-DOPA (rotational behavior): unaffected; also recorded: no differences were observed
[3]; FIG. 2, fasudil 10 mg/kg and 30-40 mg, chronic L-DOPA 23 and 32 days, p<0.05
  abnormal involuntary movements (AIMs), total score and separate components (extremity, axial, orolingual): statistically significant reduction
[3]; L-DOPA dose increased to 24 mg/kg at the end of the treatment, fasudil dose not stated
  reduction in dyskinesia in conditions of severe dyskinesia: approximately 50%
[3]; [6]
  axial reduction in dyskinesias: ~35%
  orolingual reduction in dyskinesias: ~30%
[3]; fasudil 10 mg/kg/day i.p., from 5 days before and 30 min before each L-DOPA 6 mg/kg, 3 weeks, relative to L-DOPA only
  reduction in dyskinesias in the extremities: ~25%
[3]; [7]
  axial reduction in dyskinesias: 60%
  extremity reduction in dyskinesias: 60%
  orolingual reduction in dyskinesias: 70%
[3]; fasudil 40 mg/kg i.p., chronic L-DOPA
  reduction in dyskinesia: 70%
